{
  "source": "patent US20130202685A1",
  "about": "“Use of a histamine H4 antagonist for the treatment of post-operative adhesions” (Janssen Pharmaceutica NV, priority 2008, published 2013)",
  "key": {"[1]": {"tested_on": "adhesion formation at the site of sidewall injury", "assay": "Peritoneal sidewall adhesion model (rabbit)", "assay_type": "in vivo", "conditions": "individual animals"}, "[2]": {"tested_on": "adhesion formation at the site of sidewall injury", "assay": "Peritoneal sidewall adhesion model (rabbit)", "assay_type": "in vivo", "conditions": "for Adhesion Area / Adhesion Tenacity: individual animals; for Adhesion Area Mean/SEM: group mean; for Adhesion Tenacity Mean/SEM (mean of the rank of the tenacity): group mean rank; for Adhesion Tenacity: score 0-3", "protocol": "Multiple studies to confirm the efficacy of histamine H4 receptor antagonists in the reduction or inhibition of adhesion formation after peritoneal surgery were performed using a sidewall adhesion model.\nAnimals: Twenty eight female New Zealand White rabbits, 2.4-2.7 kg, were purchased from Irish Farms and quarantined for at least 2 days prior to use. The rabbits were housed on a 12:12 light:dark cycle with food and water available ad libitum.\nRabbits were anesthetized with a mixture of 55 mg/kg ketamine hydrochloride and 5 mg/kg Rompum intramuscularly. Following preparation for sterile surgery, a midline laparotomy was performed. A polyethylene catheter (Clay Adams polyethylene tubing PE-60 ID 0.76 mm (0.030″) OD 1.22 mm (0.048″)) was introduced into the peritoneal cavity and sutured to the sidewall with 5-0 Ethilon. For local administration, an Alzet miniosmotic pump (10 μl/hour, 2 ml, Model 2ML1 from Durect), filled with one dosage level or placebo (water for injection) control at 10 μl/hour over 7 days starting with the day of surgery was placed in the subcutaneous space. The catheter was then attached to the pump and the midline muscle incision was closed around the catheter. The cecum and bowel were exteriorized and digital pressure was exerted to create subserosal hemorrhages over all surfaces. The damaged intestine was then lightly abraded with 4″×4″ 4-ply sterile gauze until punctate bleeding was observed. The cecum and bowel was then returned to their normal anatomic position. A 5×3 cm area of peritoneum and transversus abdominous muscle was removed on the right lateral abdominal wall. The incision was closed in two layers with 3-0 Vicryl (Ethicon, Somerville, N.J.). The pump was replaced at day 7.\nTwenty-one days after surgery, rabbits were sacrificed by intravenous EuthaSol. Adhesion formation at the site of sidewall injury was assessed by examination to determine the percentage of the area of the sidewall injury involved in adhesions. The percentage of a surface of the sidewall involved in adhesions to various organs are given in the tables below to quantify the overall adhesion score. In addition, tenacity of the adhesion formed was scored using a system as follows:\n1=mild, easily dissectible adhesions;\n3=dense adhesions; non-dissectible, tears when removed.\nThe difference in adhesion formation between the control and treated groups were analyzed by Student's t-test. A reduction in the area and the tenacity of the adhesions would be considered beneficial and efficacious.\nGeneral observations were conducted on each animal (appearance, behavior, clinical signs, symptoms, moribundity, mortality, and physical examinations) prior to assignment to study and on the day of necropsy. On the day of necropsy data and observations were recorded with particular attention to inflammation, granulomatous material and adhesion formation at the treatment site. All biocompatibility results were recorded, and the level of reaction was noted (none, mild, moderate, severe)."}, "[3]": {"conditions": "5 mg/ml, non-systemic by Alzet pump, 21 days after surgery"}, "[4]": {"conditions": "5 mg/ml, non-systemic by pump, result in words"}},
  "note": "“And” between values parts separate entries of the source, which are not always exact repeats. Equal entries are not always repeated.",
  "data": [
    {"smiles": "Cc1cc(C)c2nc(-c3cnc(NCCCC4CCN(C)CC4)nc3C)[nH]c2c1", "note": "[Test Compound, [5-(4,6-dimethyl-1H-benzoimidazol-2-yl)-4-methyl-pyrimidin-2-yl]-[3-(1-methyl-piperidin-4-yl)-propyl]-amine]", "values": [
      {"measurement": "Adhesion Area", "setting": "[1]; 30 mg/kg orally (gavage on day of surgery and four additional days), 21 days after surgery", "value": "100 percentage (3×) and 40 percentage and 70 percentage and 80 percentage and 60 percentage"},
      {"measurement": "Adhesion Tenacity", "setting": "[1]; 30 mg/kg orally, score 0-3", "value": "3 (2×) and 1 (3×) and 2 (2×)"},
      {"measurement": "Adhesion Area", "setting": "[2]; 0.1 mg/ml, non-systemic (pump), 21 days after surgery", "value": "80 percentage (2×) and 100 percentage (3×) and 70 percentage (2×)"},
      {"measurement": "Adhesion Area Mean/SEM", "setting": "[2]; 0.1 mg/ml, non-systemic (pump)", "value": "85.7 ± 5.28", "unit": "percentage"},
      {"measurement": "Adhesion Tenacity Mean/SEM (mean of the rank of the tenacity)", "setting": "[2]; 0.1 mg/ml, non-systemic (pump)", "value": "20.1 ± 3.37"},
      {"measurement": "Adhesion Tenacity", "setting": "[2]; 0.1 mg/ml, non-systemic (pump)", "value": "2 (5×) and 3 and 1"},
      {"measurement": "Adhesion Area", "setting": "[2]; 1 mg/ml, non-systemic (pump), 21 days after surgery", "value": "80 percentage (3×) and 70 percentage and 60 percentage (3×)"},
      {"measurement": "Adhesion Area Mean/SEM", "setting": "[2]; 1 mg/ml, non-systemic (pump)", "value": "70 ± 10", "unit": "percentage"},
      {"measurement": "Adhesion Tenacity Mean/SEM (mean of the rank of the tenacity)", "setting": "[2]; 1 mg/ml, non-systemic (pump)", "value": "13.9 ± 3.38"},
      {"measurement": "Adhesion Tenacity", "setting": "[2]; 1 mg/ml, non-systemic (pump)", "value": "2 (4×) and 1 (3×)"},
      {"measurement": "Adhesion Area", "setting": "[2]; 10 mg/ml, non-systemic (pump), 21 days after surgery", "value": "100 percentage (2×) and 60 percentage (2×) and 80 percentage (2×) and 90 percentage"},
      {"measurement": "Adhesion Area Mean/SEM", "setting": "[2]; 10 mg/ml, non-systemic (pump)", "value": "81.4 ± 6.34", "unit": "percentage"},
      {"measurement": "Adhesion Tenacity Mean/SEM (mean of the rank of the tenacity)", "setting": "[2]; 10 mg/ml, non-systemic (pump)", "value": "18.3 ± 1.43"},
      {"measurement": "Adhesion Tenacity", "setting": "[2]; 10 mg/ml, non-systemic (pump)", "value": "2 (6×) and 1"},
      {"measurement": "Adhesion Area Mean/SEM", "setting": "[2]; 30 mg/kg orally", "value": "78.6 ± 8.85", "unit": "percentage"},
      {"measurement": "Adhesion Tenacity Mean/SEM (mean of the rank of the tenacity)", "setting": "[2]; 30 mg/kg orally", "value": "17.6 ± 5.27"},
      {"measurement": "tenacity of adhesions", "setting": "[2]; mid-dose (1 mg/ml) administered by pump, not statistically significant, result in words", "value": "appeared reduced"},
      {"measurement": "area of adhesion reduction", "setting": "[2]; mid-dose (1 mg/ml) administered by pump, result in words", "value": "statistically significant"}
    ]},
    {"smiles": "CN1CCN(C(=O)c2c[nH]c3ccc(Cl)cc23)CC1", "note": "[(5-Chloro-1H-indol-3-yl)-(4-methyl-piperazin-1-yl)-methanone]", "values": [
      {"measurement": "Adhesion Area", "setting": "[2]; 5 mg/ml, non-systemic by Alzet pump 10 μl/hour, 21 days after surgery", "value": "60 percentage and 70 percentage and 40 percentage and 80 percentage and 50 percentage and 100 percentage (2×)"},
      {"measurement": "Adhesion Area Mean/SEM", "setting": "[2]; [3]", "value": "71.4 ± 8.8", "unit": "percentage"},
      {"measurement": "Adhesion Tenacity Mean/SEM (mean of the rank of the tenacity)", "setting": "[2]; [3]", "value": "6.93 ± 1.4"},
      {"measurement": "Adhesion Tenacity", "setting": "[2]; [3]", "value": "1 (6×) and 2"},
      {"measurement": "clinical signs", "setting": "[2]; 5 mg/ml, non-systemic by pump, general observations", "value": "No other rabbits showed any clinical signs"},
      {"measurement": "inflammatory or granulomatous reactions in the peritoneal cavity", "setting": "[2]; 5 mg/ml, non-systemic by pump, necropsy observation", "value": "no inflammatory or granulomatous reactions"},
      {"measurement": "area of adhesions versus control", "setting": "[2]; [4]", "value": "significantly reduced"},
      {"measurement": "tenacity of adhesions versus control", "setting": "[2]; [4]", "value": "significantly reduced"}
    ]}
  ]
}
